From ChEMBL document CHEMBL5137124, “Mutasynthesis Generates Antibacterial Benzothiophenic-Containing Nosiheptide Analogues” (2022)
Converted amounts (≈) assume the structure as drawn.

What was measured:
Type in all cases: functional
Enterococcus faecium [1] = assay: Antibacterial activity against gram positive vancomycin-sensitive Enterococcus faecium CICC 6049 assessed as inhibition of bacterial growth incubated for 20 hrs by microtiter plate method
Enterococcus faecium [2] = assay: Antibacterial activity against gram positive vancomycin-sensitive Enterococcus faecium CICC 20419 assessed as inhibition of bacterial growth incubated for 20 hrs by microtiter plate method
Staphylococcus aureus [3] = assay: Antibacterial activity against gram positive methicillin-resistant Staphylococcus aureus HCCB 20252 assessed as inhibition of bacterial growth incubated for 20 hrs by microtiter plate method
Staphylococcus aureus [4] = assay: Antibacterial activity against gram positive methicillin-sensitive Staphylococcus aureus ATCC 6538 assessed as inhibition of bacterial growth incubated for 20 hrs by microtiter plate method
Staphylococcus aureus [5] = assay: Antibacterial activity against gram positive methicillin-resistant Staphylococcus aureus ATCC 43300 assessed as inhibition of bacterial growth incubated for 20 hrs by microtiter plate method
Enterococcus faecium [6] = assay: Antibacterial activity against gram positive vancomycin-resistant Enterococcus faecium ATCC 51559 assessed as inhibition of bacterial growth incubated for 20 hrs by microtiter plate method
Staphylococcus aureus [7] = assay: Antibacterial activity against gram positive methicillin-resistant Staphylococcus aureus HCCB 20251 assessed as inhibition of bacterial growth incubated for 20 hrs by microtiter plate method
Staphylococcus aureus [8] = assay: Antibacterial activity against gram positive methicillin-sensitive Staphylococcus aureus ATCC 25923 assessed as inhibition of bacterial growth incubated for 20 hrs by microtiter plate method

| Compound | MIC (Enterococcus faecium [1]) | MIC (Enterococcus faecium [2]) | MIC (Staphylococcus aureus [3]) | MIC (Staphylococcus aureus [4]) | MIC (Staphylococcus aureus [5]) | MIC (Enterococcus faecium [6]) | MIC (Staphylococcus aureus [7]) | MIC (Staphylococcus aureus [8]) |
| --- | --- | --- | --- | --- | --- | --- | --- | --- |
| C=C(NC(=O)c1csc(-c2nc3c(cc2O)-c2nc(cs2)C(=O)N[C@@H]([C@@H](C)O)C(=O)N/C(=C\C)c2nc(cs2)C(=O)N[C@H]2C[C@H](O)C(=O)OCc4cccc5[nH]c(c(C)c45)C(=O)SC[C@H](NC(=O)c4csc2n4)c2nc-3cs2)n1)C(N)=O | 0.016 µg/mL (≈ 0.0131 µM) | 0.032 µg/mL (≈ 0.0262 µM) | 0.008 µg/mL (≈ 0.00654 µM) | 0.002 µg/mL (≈ 0.00164 µM) | 0.008 µg/mL (≈ 0.00654 µM) | ≤ 0.008 µg/mL | 0.008 µg/mL (≈ 0.00654 µM) | 0.008 µg/mL (≈ 0.00654 µM) |
| C=C(NC(=O)C(=C)NC(=O)c1csc(-c2ccc3c(n2)-c2csc(n2)[C@@H]2CSC(=O)c4sc5cccc(c5c4C)COC(=O)CC[C@H](NC(=O)c4csc(n4)/C(=C/C)NC(=O)[C@H]([C@@H](C)O)NC(=O)c4csc-3n4)c3nc(cs3)C(=O)N2)n1)C(=O)O | 1.02 µg/mL (≈ 0.802 µM) | 1.02 µg/mL (≈ 0.802 µM) | 0.032 µg/mL (≈ 0.025 µM) | 0.016 µg/mL (≈ 0.0125 µM) | 0.032 µg/mL (≈ 0.025 µM) | 0.512 µg/mL (≈ 0.401 µM) | 0.064 µg/mL (≈ 0.0501 µM) | 0.032 µg/mL (≈ 0.025 µM) |
| C=C(NC(=O)c1csc(-c2nc3c(cc2O)-c2nc(cs2)C(=O)N[C@@H]([C@@H](C)O)C(=O)N/C(=C\C)c2nc(cs2)C(=O)N[C@H]2CCC(=O)OCc4cccc5sc(c(C)c45)C(=O)SC[C@H](NC(=O)c4csc2n4)c2nc-3cs2)n1)C(N)=O | 0.064 µg/mL (≈ 0.0523 µM) | 0.064 µg/mL (≈ 0.0523 µM) | 0.008 µg/mL (≈ 0.00654 µM) | 0.004 µg/mL (≈ 0.00327 µM) | 0.008 µg/mL (≈ 0.00654 µM) | 0.032 µg/mL (≈ 0.0262 µM) | 0.016 µg/mL (≈ 0.0131 µM) | 0.032 µg/mL (≈ 0.0262 µM) |
| C=C(NC(=O)C(=C)NC(=O)c1csc(-c2ccc3c(n2)-c2csc(n2)[C@@H]2CSC(=O)c4[nH]c5cccc(c5c4C)COC(=O)CC[C@H](NC(=O)c4csc(n4)/C(=C/C)NC(=O)[C@H]([C@@H](C)O)NC(=O)c4csc-3n4)c3nc(cs3)C(=O)N2)n1)C(=O)O | > 1.02 µg/mL | 1.02 µg/mL (≈ 0.812 µM) | 0.064 µg/mL (≈ 0.0508 µM) | 0.016 µg/mL (≈ 0.0127 µM) | 0.032 µg/mL (≈ 0.0254 µM) | 0.512 µg/mL (≈ 0.406 µM) | 0.064 µg/mL (≈ 0.0508 µM) | 0.016 µg/mL (≈ 0.0127 µM) |
| C=C(NC(=O)c1csc(-c2nc3c(cc2O)-c2nc(cs2)C(=O)N[C@@H]([C@@H](C)O)C(=O)N/C(=C\C)c2nc(cs2)C(=O)N[C@H]2C[C@H](O)C(=O)OCc4cccc5sc(c(C)c45)C(=O)SC[C@H](NC(=O)c4csc2n4)c2nc-3cs2)n1)C(N)=O | 0.064 µg/mL (≈ 0.0516 µM) | 0.064 µg/mL (≈ 0.0516 µM) | 0.008 µg/mL (≈ 0.00645 µM) | 0.004 µg/mL (≈ 0.00323 µM) | 0.008 µg/mL (≈ 0.00645 µM) | 0.016 µg/mL (≈ 0.0129 µM) | 0.016 µg/mL (≈ 0.0129 µM) | 0.008 µg/mL (≈ 0.00645 µM) |
| CN[C@H](CC(C)C)C(=O)N[C@H]1C(=O)N[C@@H](CC(N)=O)C(=O)N[C@H]2C(=O)N[C@H]3C(=O)N[C@H](C(=O)N[C@H](C(=O)O)c4cc(O)cc(O)c4-c4cc3ccc4O)[C@H](O)c3ccc(c(Cl)c3)Oc3cc2cc(c3O[C@@H]2O[C@H](CO)[C@@H](O)[C@H](O)[C@H]2O[C@H]2C[C@](C)(N)[C@H](O)[C@H](C)O2)Oc2ccc(cc2Cl)[C@H]1O [VANCOMYCIN] |  |  |  |  |  | > 128 µg/mL |  |  |
